Measured values taken from patent US12509437B2, “Substituted thiophene carboxamides and derivatives thereof as microbicides” (Bayer Aktiengesellschaft, priority 2019, dated 2025).

Columns and labels:
[1] = system: Colletotrichum lindemuthianum; assay: Colletotrichum lindemuthianum in vitro cell test; type: cell-based; conditions: 144 h, 6 days incubation, read-out: efficacy (inhibition of fungal growth; no direct activity); for inhibition at 5 ppm: 5 ppm of active ingredient; for inhibition at 20 ppm: 20 ppm of active ingredient
Outline: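 C. lindemuthianum spore suspension grown in liquid glucose/peptone/yeast-extract medium with compound (final DMSO ≤1%). After 6 days, mycelial growth measured by absorbance; inhibition calculated versus fungicide-free control wells.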

[2] = system: Xanthomonas campestris pv. campestris; assay: In vivo preventive test on Xanthomonas campestris pv. campestris (black rot on cabbage); conditions: Xanthomonas campestris, sprayed 72 hours before inoculation, evaluated 8 or 10 days after inoculation, read-out: efficacy; for pest or weed control at 31 ppm: 31 ppm of active ingredient; for pest or weed control at 125 ppm: 125 ppm of active ingredient; for pest or weed control at 500 ppm: 500 ppm of active ingredient
Outline: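 Young cabbage plants sprayed preventively with compound formulated in acetone/DMSO/Tween and diluted in water, then inoculated 72 h later with a bacterial spray. Kept at 27° C, 95% relative humidity; disease scored after 8 or 10 days as % efficacy versus solvent-treated controls (0% = control, 100% = no disease).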

Compound: COC(=O)C(NC(=O)c1sc(Br)c(Br)c1C)C1CC1 (stereo not drawn) [I.032]
- inhibition at 5 ppm [1]: ≤ 30%
- pest or weed control at 31 ppm [2]: 90 to 100%
- pest or weed control at 125 ppm [2]: 90 to 100%
- pest or weed control at 500 ppm [2]: 90 to 100%

Compound: COC(=O)C(NC(=O)c1sc(Cl)c(Cl)c1C)C1CC1 (stereo not drawn) [I.081, methyl cyclopropyl{[(4,5-dichloro-3-methyl-2-thienyl)carbonyl]amino}acetate]
- inhibition at 5 ppm [1]: ≤ 30%
- inhibition at 20 ppm [1]: ≤ 30%
- pest or weed control at 31 ppm [2]: 80 to 89%
- pest or weed control at 125 ppm [2]: 90 to 100%

Compound: COC(=O)CC[C@H](NC(=O)c1sc(Cl)c(Cl)c1C)C(=O)OC [I.122]
- inhibition at 5 ppm [1]: ≤ 30%
- inhibition at 20 ppm [1]: ≤ 30%
- pest or weed control at 31 ppm [2]: 90 to 100%
- pest or weed control at 125 ppm [2]: 90 to 100%
- pest or weed control at 500 ppm [2]: 90 to 100%

Compound: CCOC(=O)C1(NC(=O)c2sc(Cl)c(Cl)c2C)CCC1 [I.047]
- inhibition at 5 ppm [1]: ≤ 30%
- pest or weed control at 125 ppm [2]: 80 to 89%

Compound: Cc1c(C(=S)NC2(C(=O)O)CC2)sc(Cl)c1Cl [I.060]
- inhibition at 5 ppm [1]: ≤ 30%
- inhibition at 20 ppm [1]: ≤ 30%
- pest or weed control at 125 ppm [2]: 70 to 79%
- pest or weed control at 500 ppm [2]: 80 to 89%

Compound: Cc1c(C(=O)NC(C(=O)O)C2CC2)sc(Cl)c1Cl (stereo not drawn) [I.095]
- inhibition at 5 ppm [1]: ≤ 30%
- inhibition at 20 ppm [1]: ≤ 30%
- pest or weed control at 31 ppm [2]: 70 to 79%
- pest or weed control at 125 ppm [2]: 90 to 100%
- pest or weed control at 500 ppm [2]: 90 to 100%

Compound: CCOC(=O)C(C#N)NC(=O)c1sc(Br)c(Br)c1C (stereo not drawn) [I.077]
- inhibition at 5 ppm [1]: ≤ 30%
- inhibition at 20 ppm [1]: ≤ 30%
- pest or weed control at 31 ppm [2]: 80 to 89%
- pest or weed control at 125 ppm [2]: 80 to 89%

Compound: Cc1c(C(=O)NC(C(=O)O)C2CC2)sc(Br)c1Br (stereo not drawn) [I.080, cyclopropyl{[(4,5-dibromo-3-methyl-2-thienyl)carbonyl]amino}acetic acid]
- inhibition at 5 ppm [1]: ≤ 30%
- inhibition at 20 ppm [1]: ≤ 30%
- pest or weed control at 31 ppm [2]: 70 to 79%
- pest or weed control at 125 ppm [2]: 80 to 89%
- pest or weed control at 500 ppm [2]: 90 to 100%
